Data on seven compounds can be found in patent publication US6884906B2, “Menthyl half acid ester derivatives, processes for preparing same, and uses thereof for their cooling/refreshing effect in consumable materials” (International Flavors & Fragrances Inc., priority 2003, dated 2005).

What all share (assay type): in vivo
Experiment [1] deals with oral cavity. Briefly: Flavor and sensory characteristics at use level of 25 ppm in water.
Experiment [2] deals with oral cavity. The experiment in a line: Sensory evaluation in cherry-flavored hard candy. The note with it: 0.2 grams added to recipe yielding 200 grams of hard candy; versus control candy. The procedure:
The following formulation was prepared: […]
The above formulation was added to a stainless steel pot. With constant mixing, the formulation temperature was raised to 295° F. The pot was then removed from the heat, and 0.3 grams of cherry flavor containing the ingredients in equal amounts benzaldehyde, tolyl aldehyde, ethyl acetate, maltol, Davana oil and methyl heptinyl carbonate and 1.2 grams of citric acid was added. The resulting liquid candy was then deposited into molds, and the molds containing the liquid candy were cooled to room temperature, yielding 200 grams of finished hard candy. […] A second candy sample was prepared using the above recipe modified by the addition of 0.2 grams of menthyl succinamide prepared according to the procedure of Example I (A).

Experiment [3] relates to oral cavity. The experiment in a line: Sensory evaluation in fruity citrus chewing gum. The note with it: 1 part by weight added to gum of 100 parts chicle, 4 parts flavor, 300 parts sucrose, 100 parts corn syrup; versus control gum. The method, then: 100 parts by weight of chicle were mixed with 4 parts by weight of a fruity citrus gum flavor which was a blend of lemon oil, ethyl butyrate, ethyl acetate, benzaldehyde, citral and alpha ionone in equal portions. To the resulting mixture, 300 parts by weight of sucrose and 100 parts by weight of corn syrup were added. Mixing was effected in a ribbon blender with jacketed sidewalls, manufactured by Baker Perkins Co. The resultant chewing gum blend was then manufactured into strips 1 inch in width and 0.1 inches in thickness. These strips were cut into lengths of 3 inches each. […] A second gum sample was prepared using the above recipe with the addition of 1 part by weight of menthyl N,N-dimethyl succinamide, prepared according to Example I(C).

Turning to `CC(C)[C@@H]1CC[C@@H](C)C[C@H]1OC(=O)CCC(N)=O` [Example I(A), Butanoic acid, 4-amino-4-oxo, (5-methyl-2-(1-methylethyl)cyclohexyl)ester, (1R-(1α,2β,5α))-], in experiment [1], the “Cooling Duration” value was 7.5 min and the “Onset Time” value lay in the range of 8 to 25 s. In addition, the “cooling effect in hard candy” value in experiment [2] was “moderately strong and substantive cooling effect”.

For the compound `CC(C)[C@@H]1CC[C@@H](C)C[C@H]1OC(=O)CCC(=O)NCCO` [Example I(E), Butanoic acid, 4-(2-hydroxyethyl)amino-4-oxo, (5-methyl-2-(1-methylethyl)cyclohexyl) ester, (1R-(1α,2β,5α))-], in experiment [1], the “Cooling Duration” value was found to be 15 min and the “Onset Time” value is 11 s.

Regarding “Pentanoic acid, 4-methylamino-4-oxo, (5-methyl-2-(1-methylethyl)cyclohexyl) ester, (1R-(1α,2β,5α))- [Example I(G)]”, in experiment [1], the “Cooling Duration” value stood at 5 min and the “Onset Time” value stood at 20 s.

`CC(C)[C@@H]1CC[C@@H](C)C[C@H]1OC(=O)CCCCC(=O)O` [Example I(I), Hexanedioic acid, mono(5-methyl-2-(1-methylethyl)cyclohexyl) ester, (1R-(1α,2β,5α))-]: in experiment [1], the “Cooling Duration” value worked out at 10.5 min and the “Onset Time” value is 34 s.

Consider `CNC(=O)CCC(=O)O[C@@H]1C[C@H](C)CC[C@H]1C(C)C` [Example I(B), Butanoic acid, 4-methylamino-4-oxo, (5-methyl-2-(1-methylethyl)cyclohexyl)ester, (1R-(1α,2β,5α))], for which, in experiment [1], the “Cooling Duration” value is 7 min and the “Onset Time” value was in the range of 15 to 25 s.

Turning to `CCNC(=O)CCC(=O)O[C@@H]1C[C@H](C)CC[C@H]1C(C)C` [I(D), Butanoic acid, 4-ethylamino-4-oxo, (5-methyl-2-(1-methylethyl)cyclohexyl)ester, (1R-(1α,2β,5α))-], in experiment [1], the “Cooling Duration” value worked out at 7 min and the “Onset Time” value came out at 35 s.

For the compound `CC(C)[C@@H]1CC[C@@H](C)C[C@H]1OC(=O)CCC(=O)N(C)C` [Example I(C), Butanoic acid, 4-dimethylamino-4-oxo, (5-methyl-2-(1-methylethyl)cyclohexyl)ester, (1R-(1α,2β,5α))-], in experiment [1], the “Cooling Duration” value was found to be 11.25 min and the “Onset Time” value was determined as 25 s. Moreover, the “cooling effect in chewing gum” value in experiment [3] was “pleasant and substantive cooling effect on the tongue and roof of the mouth”.
